# From ChEMBL document CHEMBL1136115, “Constrained phytoestrogens and analogues as ERbeta selective ligands” (Bioorg Med Chem Lett, 2003)
# pIC50: −log10 of the molar value.
# Assays:
# Estrogen receptor = target: T1, Estrogen receptor (Homo sapiens, UniProt P03372)
# T1 sequence (P03372 whole entry): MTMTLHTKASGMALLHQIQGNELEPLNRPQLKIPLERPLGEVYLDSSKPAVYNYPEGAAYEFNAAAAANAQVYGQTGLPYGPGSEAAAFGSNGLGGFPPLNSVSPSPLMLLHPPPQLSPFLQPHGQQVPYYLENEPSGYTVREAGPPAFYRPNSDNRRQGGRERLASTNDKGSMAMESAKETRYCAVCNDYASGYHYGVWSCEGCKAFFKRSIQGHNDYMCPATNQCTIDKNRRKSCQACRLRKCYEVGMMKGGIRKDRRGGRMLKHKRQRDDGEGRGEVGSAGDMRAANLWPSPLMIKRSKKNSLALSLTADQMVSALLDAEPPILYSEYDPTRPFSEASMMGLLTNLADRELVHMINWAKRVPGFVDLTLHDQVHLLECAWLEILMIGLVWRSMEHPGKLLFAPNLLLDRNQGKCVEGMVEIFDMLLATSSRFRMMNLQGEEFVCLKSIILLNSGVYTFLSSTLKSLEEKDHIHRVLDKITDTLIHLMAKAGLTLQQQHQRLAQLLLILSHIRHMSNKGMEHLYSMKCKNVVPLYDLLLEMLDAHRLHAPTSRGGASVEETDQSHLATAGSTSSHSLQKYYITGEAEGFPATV
# Description: Binding affinity towards human estrogen receptor alpha(ERalpha)
# Estrogen receptor beta [1] = target: T2, Estrogen receptor beta (Homo sapiens, UniProt Q92731)
# T2 sequence (Q92731 whole entry): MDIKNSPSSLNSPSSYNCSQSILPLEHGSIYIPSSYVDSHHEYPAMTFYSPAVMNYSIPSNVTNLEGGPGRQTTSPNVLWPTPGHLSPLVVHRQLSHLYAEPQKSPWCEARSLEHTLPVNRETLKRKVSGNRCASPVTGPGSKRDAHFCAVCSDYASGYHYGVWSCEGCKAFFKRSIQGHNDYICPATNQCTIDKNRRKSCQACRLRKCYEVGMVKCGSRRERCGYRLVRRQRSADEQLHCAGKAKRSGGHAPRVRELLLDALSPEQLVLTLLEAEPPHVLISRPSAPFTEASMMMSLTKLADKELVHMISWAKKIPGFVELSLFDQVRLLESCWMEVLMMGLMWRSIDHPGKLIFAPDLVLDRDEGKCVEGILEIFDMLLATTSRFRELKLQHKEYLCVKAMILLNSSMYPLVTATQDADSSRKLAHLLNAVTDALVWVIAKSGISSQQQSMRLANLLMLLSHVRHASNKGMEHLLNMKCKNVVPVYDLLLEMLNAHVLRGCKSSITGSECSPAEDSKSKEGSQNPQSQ
# Description: Binding affinity towards human estrogen receptor beta (ERbeta)
# [2] = target: T3, Estrogen receptor (Homo sapiens) (UniProt P03372); assay: Effective dose in ERalpha-MCF-7 cells; format: functional, cell-based
# T3 sequence (whole entry): T1 sequence (P03372 whole entry)
# [3] = target: T3, Estrogen receptor (Homo sapiens); assay: Efficacy in ER alpha-MCF-7 cells; format: functional, cell-based
# Estrogen receptor beta [4] = target: T2, Estrogen receptor beta; assay: Effective dose in metallothionein-II using metallothionein assay
pIC50 (Estrogen receptor),pIC50 (Estrogen receptor beta [1]),ED50 [2],Efficacy [3],ED50 (Estrogen receptor beta [4]),Structure (SMILES)
< 5.30,,,,,O=c1c2ccccc2oc2c1oc1cc(O)ccc12
5.81,5.87,,,,N#Cc1cc(O)cc2c1oc1c(=O)c3c(O)cc(O)cc3oc12
,8.77,,,,O=c1c2c(O)cc(O)cc2oc2oc3cc(O)ccc3c12
< 5.30,5.76,,,,O=c1c2ccc(O)cc2oc2c1oc1c(Br)cc(O)cc12
< 5.30,,,,,O=c1c2ccc(O)cc2oc2c1oc1ccccc12
5.90,6.46,,,,O=c1c2oc3c(Br)cc(O)cc3c2oc2cc(O)cc(O)c12
6.74,,,,,O=c1c2cc(O)ccc2oc2c1oc1ccc(O)cc12
< 5.30,< 5.30,,,,N#Cc1cc(O)cc2c1oc1c(=O)c3ccc(O)cc3oc12
,7.38,> 0.5 µM,58%,0.018 µM,O=c1c2oc3ccc(O)cc3c2oc2cc(O)cc(O)c12
